Read-outs that look alike come from different tables or passages of the source.
What was measured:
[1] = tested on: S. aureus IID 670 (Terajima); test: In vitro antibacterial activity, MIC (standard strain); format: cell-based, Staphylococcus aureus; conditions: Staphylococcus aureus
S. pneumoniae 2950 = test: In vitro antibacterial activity, MIC (clinical isolates); format: cell-based; conditions: Streptococcus pneumoniae
S. agalactiae 4342 = test: as above; format: cell-based; conditions: Streptococcus agalactiae; S. agalactiae 4342; 10^6 cells/ml; clinical isolate; read-out: MIC
[2] = tested on: Enterobacter cloacae IID 977; test: In vitro antibacterial activity, MIC (standard strain); format: cell-based; conditions: Enterobacter cloacae, IID977, Enterobacter cloacae IID 977; 10^6 cells/ml; standard strain; read-out: MIC
S. pyogenes 3107 = test: In vitro antibacterial activity, MIC (clinical isolates); format: cell-based; conditions: Streptococcus pyogenes
[3] = tested on: Salmonella entritidis IID 604; test: In vitro antibacterial activity, MIC (standard strain); format: cell-based; conditions: IID604; Salmonella entritidis IID 604; 10^6 cells/ml; standard strain; read-out: MIC
P. aeruginosa IFO 12689 = test: as above; format: cell-based, Pseudomonas aeruginosa; conditions: Pseudomonas aeruginosa, IFO12689; P. aeruginosa IFO 12689; 10^6 cells/ml; standard strain; read-out: MIC
[4] = tested on: Bacteroides fragilis GM 7000; test: as above; format: cell-based; conditions: GM7000; Bacteroides fragilis GM 7000; 10^6 cells/ml; standard strain; read-out: MIC
[5] = tested on: Acinetobacter anitratus IID 876; test: as above; format: cell-based; conditions: Acinetobacter calcoaceticus, IID876, Acinetobacter anitratus IID 876; 10^6 cells/ml; standard strain; read-out: MIC
S. agalactiae 4470 = test: In vitro antibacterial activity, MIC (clinical isolates); format: cell-based; conditions: Streptococcus agalactiae; S. agalactiae 4470; 10^6 cells/ml; clinical isolate; read-out: MIC
Shigella sonnei IID 969 = test: In vitro antibacterial activity, MIC (standard strain); format: cell-based; conditions: IID969, 10^6 cells/ml
Protocol: Experiment-1 In vitro antibacterial activity
The in vitro antibacterial activity against gram-positive and gram-negative bacteria has been investivated.
The minimum inhibitory concentration (MIC) was determined in accordance with the method recommended by Japan Society of Chemotherapy.

S. faecalis 49 = test: In vitro antibacterial activity, MIC (clinical isolates); format: cell-based; conditions: Enterococcus faecalis; S. faecalis 49; 10^6 cells/ml; clinical isolate; read-out: MIC
[6] = tested on: Clostridium perfringens KYA 13123; test: microbe, parasite or virus in culture; format: cell-based; conditions: KYA13123
S. pyogenes IID 692 = test: In vitro antibacterial activity, MIC (standard strain); format: cell-based; conditions: Streptococcus pyogenes, IID692; S. pyogenes IID 692; 10^6 cells/ml; standard strain; read-out: MIC
S. agalactiae 4468 = test: In vitro antibacterial activity, MIC (clinical isolates); format: cell-based; conditions: Streptococcus agalactiae; S. agalactiae 4468; 10^6 cells/ml; clinical isolate; read-out: MIC
S. marcescens GN 7577 = test: In vitro antibacterial activity, MIC (standard strain); format: cell-based; conditions: Serratia marcescens, GN7577
S. pneumoniae 2054 = test: In vitro antibacterial activity, MIC (clinical isolates); format: cell-based; conditions: Streptococcus pneumoniae; S. pneumoniae 2054; 10^6 cells/ml; clinical isolate; read-out: MIC
S. pyogenes 4340 = test: as above; format: cell-based; conditions: Streptococcus pyogenes
S. pneumoniae 15 = test: as above; format: cell-based; conditions: Streptococcus pneumoniae; S. pneumoniae 15; 10^6 cells/ml; clinical isolate; read-out: MIC
E. coli ATCC 10536 = test: In vitro antibacterial activity, MIC (standard strain); format: cell-based; conditions: Escherichia coli, ATCC10536
B. fragilis 0558 = test: as above; format: cell-based, Bacteroides fragilis; conditions: Bacteroides fragilis, 0558, B. fragilis 0558; 10^6 cells/ml; standard strain; read-out: MIC
[7] = tested on: Morganella morganii IID 602; test: as above; format: cell-based; conditions: IID602; Morganella morganii IID 602; 10^6 cells/ml; standard strain; read-out: MIC
S. aureus Smith = test: as above; format: cell-based, Staphylococcus aureus; conditions: Staphylococcus aureus, S. aureus Smith, 10^6 cells/ml, standard strain
S. faecalis 214 = test: In vitro antibacterial activity, MIC (clinical isolates); format: cell-based; conditions: Enterococcus faecalis; S. faecalis 214; 10^6 cells/ml; clinical isolate; read-out: MIC
[8] = tested on: Yersinia enterocolitica IID 981; test: In vitro antibacterial activity, MIC (standard strain); format: cell-based; conditions: IID981; Yersinia enterocolitica IID 981; 10^6 cells/ml; standard strain; read-out: MIC
S. pneumoniae IID 552 = test: as above; format: cell-based; conditions: Streptococcus pneumoniae, IID552; S. pneumoniae IID 552; 10^6 cells/ml; standard strain; read-out: MIC
S. faecalis IID 682 = test: as above; format: cell-based; conditions: Enterococcus faecalis, IID682
S. pneumoniae 3227 = test: In vitro antibacterial activity, MIC (clinical isolates); format: cell-based; conditions: Streptococcus pneumoniae
[9] = tested on: Streptococcus pyogenes S-8; test: In vitro antibacterial activity, MIC (standard strain); format: cell-based; conditions: S8
S. faecalis 402 = test: In vitro antibacterial activity, MIC (clinical isolates); format: cell-based; conditions: Enterococcus faecalis; S. faecalis 402; 10^6 cells/ml; clinical isolate; read-out: MIC
[10] = S. pneumoniae 2950, 10^6 cells/ml, clinical isolate, read-out: MIC
[11] = S. pyogenes 3107, 10^6 cells/ml, clinical isolate, read-out: MIC
[12] = S. marcescens GN 7577, 10^6 cells/ml, standard strain, read-out: MIC
[13] = S. pyogenes 4340, 10^6 cells/ml, clinical isolate, read-out: MIC
[14] = S. faecalis IID 682, 10^6 cells/ml, standard strain, read-out: MIC
[15] = S. pneumoniae 3227, 10^6 cells/ml, clinical isolate, read-out: MIC
[16] = Streptococcus pyogenes S-8, 10^6 cells/ml, standard strain, read-out: MIC
[17] = IID670, S. aureus IID 670 (Terajima), 10^6 cells/ml, standard strain, read-out: MIC
[18] = E. coli ATCC 10536, 10^6 cells/ml, standard strain, read-out: MIC

Measured: MIC

NCC1CCN(c2c(F)cc3c(=O)c(C(=O)O)cn(C4CC4)c3c2Br)C1 (stereo not drawn) [Example 15, 7-(3-Aminomethyl-l-pyrrolidinyl)-8-bromo-l-cyclopropyl-6-fluoro-1,4-dihydro-4-oxo-3-quinolinecarboxylic acid]
0.0125 µg/mL: [1]; IID670 | Shigella sonnei IID 969 | E. coli ATCC 10536 | S. aureus Smith
0.78 µg/mL: P. aeruginosa IFO 12689 | S. marcescens GN 7577; [12]
≤ 0.05 µg/mL: B. fragilis 0558
0.1 µg/mL: S. agalactiae 4342 | [4] | [6] | S. pneumoniae 2054 | [7] | S. faecalis IID 682; [14]
0.025 µg/mL: [3]
0.2 µg/mL: S. faecalis 49 | S. faecalis 214 | S. faecalis 402
0.05 µg/mL: S. pneumoniae 2950; [10] | [2] | S. pyogenes 3107; [11] | [5] | S. agalactiae 4470 | S. pyogenes IID 692 | S. agalactiae 4468 | S. pyogenes 4340; [13] | S. pneumoniae 15 | [8] | S. pneumoniae IID 552 | S. pneumoniae 3227; [15] | [9]; [16]

CNCC1CCN(c2c(F)cc3c(=O)c(C(=O)O)cn(C4CC4)c3c2Br)C1 (stereo not drawn) [Example 16, 8-Bromo-1-cyclopropyl-6-fluoro-1,4-dihydro-7-(3-methylaminomethyl-l-pyrrolidinyl)-4-oxo-3-quinolinecarboxylic acid]
0.0125 µg/mL: S. aureus Smith; read-out: MIC
0.2 µg/mL: [4]
0.78 µg/mL: S. marcescens GN 7577; [12]
1.56 µg/mL: P. aeruginosa IFO 12689
0.1 µg/mL: [2] | S. faecalis 49 | [6] | S. pyogenes IID 692 | B. fragilis 0558 | [7] | S. faecalis 214 | [8] | S. faecalis 402
0.025 µg/mL: [1]; [17] | Shigella sonnei IID 969 | E. coli ATCC 10536; [18]
0.05 µg/mL: S. pneumoniae 2950; [10] | S. agalactiae 4342 | S. pyogenes 3107; [11] | [3] | [5] | S. agalactiae 4470 | S. agalactiae 4468 | S. pneumoniae 2054 | S. pyogenes 4340; [13] | S. pneumoniae 15 | S. pneumoniae IID 552 | S. faecalis IID 682; [14] | S. pneumoniae 3227; [15] | [9]; [16]

CCNCC1CCN(c2c(F)cc3c(=O)c(C(=O)O)cn(C4CC4)c3c2Br)C1 (stereo not drawn) [Example 17, 8-Bromo-l-cyclopropyl-7-(3-ethylaminomethyl-l-pyrrolidinyl)-6-fluoro-1,4-dihydro-4-oxo-3-quinolinecarboxylic acid]
0.1 µg/mL: [2] | [3] | [4] | S. faecalis 49 | [6] | S. faecalis 214 | [8] | S. faecalis 402
0.025 µg/mL: [1]; [17] | Shigella sonnei IID 969 | E. coli ATCC 10536; [18]
0.2 µg/mL: [7]
0.78 µg/mL: S. marcescens GN 7577; [12]
0.0125 µg/mL: S. aureus Smith; read-out: MIC
0.05 µg/mL: S. pneumoniae 2950; [10] | S. agalactiae 4342 | S. pyogenes 3107; [11] | [5] | S. agalactiae 4470 | S. pyogenes IID 692 | S. agalactiae 4468 | S. pneumoniae 2054 | S. pyogenes 4340; [13] | S. pneumoniae 15 | S. pneumoniae IID 552 | S. faecalis IID 682; [14] | S. pneumoniae 3227; [15] | [9]; [16]
≤ 0.05 µg/mL: B. fragilis 0558
3.13 µg/mL: P. aeruginosa IFO 12689

CN(C)CC1CCN(c2c(F)cc3c(=O)c(C(=O)O)cn(C4CC4)c3c2Cl)C1 (stereo not drawn) [Example 20, 8-Chloro-1-cyclopropyl-6-fluoro-1,4-dihydro-7-(3-dimethylaminomethyl-l-pyrrolidinyl)-4-oxo-3-quinolinecarboxylic acid]
≤ 0.05 µg/mL: B. fragilis 0558
3.13 µg/mL: P. aeruginosa IFO 12689
0.1 µg/mL: S. agalactiae 4342 | [2] | [3] | [4] | S. agalactiae 4470 | S. faecalis 49 | [6] | S. pyogenes IID 692 | S. agalactiae 4468 | S. pneumoniae 2054 | S. faecalis 214 | [8] | S. faecalis IID 682; [14] | S. pneumoniae 3227; [15] | S. faecalis 402
0.2 µg/mL: [7]
1.56 µg/mL: S. marcescens GN 7577; [12]
0.05 µg/mL: [1]; [17] | S. pneumoniae 2950; [10] | S. pyogenes 3107; [11] | [5] | Shigella sonnei IID 969 | S. pyogenes 4340; [13] | S. pneumoniae 15 | S. pneumoniae IID 552 | [9]; [16]
0.025 µg/mL: E. coli ATCC 10536; [18] | S. aureus Smith; read-out: MIC

CN(C)CC1CCN(c2c(F)cc3c(=O)c(C(=O)O)cn(C4CC4)c3c2F)C1 (stereo not drawn) [Example 21, 1-Cyclopropyl-6,8-difluoro-1,4-dihydro-7-(3-dimethylaminomethyl-1-pyrrolidinyl)-4-oxo-3-quinolinecarboxylic acid]
0.2 µg/mL: S. agalactiae 4342 | [2] | S. agalactiae 4470 | S. faecalis 49 | [6] | S. pyogenes IID 692 | S. agalactiae 4468 | S. pneumoniae 2054 | S. pneumoniae 15 | B. fragilis 0558 | [7] | S. faecalis 214 | S. pneumoniae IID 552 | S. faecalis IID 682; [14] | S. pneumoniae 3227; [15] | S. faecalis 402
0.05 µg/mL: [1]; [17] | [5] | Shigella sonnei IID 969 | E. coli ATCC 10536; [18] | S. aureus Smith; read-out: MIC
0.39 µg/mL: [4]
1.56 µg/mL: S. marcescens GN 7577; [12]
3.13 µg/mL: P. aeruginosa IFO 12689
0.1 µg/mL: S. pneumoniae 2950; [10] | S. pyogenes 3107; [11] | [3] | S. pyogenes 4340; [13] | [8] | [9]; [16]

CCn1cc(C(=O)O)c(=O)c2cc(F)c(N3CCNCC3)cc21 [NFLX, Norfloxacin, reference compound]
3.13 µg/mL: [5] | S. faecalis 49 | S. pyogenes IID 692 | S. agalactiae 4468 | S. pneumoniae 15 | S. faecalis 214 | S. pneumoniae IID 552
25 µg/mL: [4] | B. fragilis 0558
1.56 µg/mL: S. pyogenes 3107; 3107 | [6] | S. marcescens GN 7577 | S. pyogenes 4340; 4340 | S. aureus Smith | S. faecalis IID 682 | [9]; Streptococcus pyogenes
0.1 µg/mL: [2] | [3] | [8]
12.5 µg/mL: S. pneumoniae 2950; 2950 | S. pneumoniae 3227; 3227
0.78 µg/mL: [1]; [17] | P. aeruginosa IFO 12689
0.05 µg/mL: Shigella sonnei IID 969 | E. coli ATCC 10536; [18] | [7]
6.25 µg/mL: S. agalactiae 4342 | S. agalactiae 4470 | S. pneumoniae 2054 | S. faecalis 402
